Experimental data: US6011070A, “Slow-onset, long-lasting dopamine reuptake blockers” (priority 1997, dated 2000)
Entries after “also recorded” stand apart in the source; their conditions may differ. Where two headings read alike, the source gives them in different places.

Experiments:
male Swiss-Webster mice [1] = assay: Time course study of locomotor stimulation over 8 hours (Example 6); type: in vivo, Swiss-Webster mice (Hsd:ND4); conditions: for ED50: Mus musculus, ip, read-out: ED50 (dose producing one half maximal stimulant activity); for Maximum effect (horizontal activity) / Dose of maximum effect: logistic peak fit
Protocol: A dose response study of induced locomotor stimulation was conducted according to the following procedure. The study was conducted using 16 Digiscan locomotor activity testing chambers (40.5×40.5×30.5 cm) housed in sets of two, within sound-attenuating chambers. A panel of infrared beams (16 beams) and corresponding photodetectors were located in the horizontal direction along the sides of each activity chamber. A 7.5-W incandescent light above each chamber provided dim illumination. Fans provided an 80-dB ambient noise level within the chamber. Separate groups of 8 non-habituated male Swiss-Webster mice (Hsd:ND4, aged 2-3 months) were injected via the intraperitoneal (IP) route with either vehicle (0.9% saline) or test compound (5, 10, 20 or 40 mg/kg), immediately prior to locomotor activity testing. In all studies, horizontal activity (interruption of photocell beams) was measured for 8 hours within 10 minute periods, beginning at […]) two hours after lights on). Testing was conducted with one mouse per activity chamber.
Stimulant effects of 10, 20 and 40 mg/kg occurred within 10 minutes following injection and lasted up to 3 hours. […] Using TableCurve 2D v2.03 software (Jandel Scientific), the mean average horizontal activity counts for this 30-min period were fit to a 3-parameter logistic peak function of log10 dose (with the constant set to 3172, the mean of the saline-treated group), and the maximum was estimated from the resulting curve (maximum=6059 counts/10 min at 18.3 mg/kg).
Separate groups of eight mice were injected with either vehicle (deionized water) or Compound 2 (1, 3, 10 pr 30 mg/kg) immediately prior to locomotor activity testing.
Stimulant effects occurred within 40 to 70 minutes following injection and lasted 4 to ≥7 hours. The time period 280-310 min was selected for analysis of dose-response data because this was the time period in which maximal stimulant effects first appeared as a function of dose. Using TableCurve 2D v2.03 software (Jandel Scientific), the mean average horizontal activity counts/10 min for this period were fit to a 3-parameter logistic peak function of log10 dose (with the constant set to 399, the mean of the vehicle-treated group), and the maximum effect estimated from the resulting curve (maximum=4581 counts/10 min at 12.9 mg/kg).

male Swiss-Webster mice [2] = assay: Dose response study of induced locomotor stimulation (Digiscan), 1 h session (Example 2); type: in vivo, Swiss-Webster mice (Hsd:ND4); conditions: IP; for Maximal Effect Relative to Cocaine / ED50: locomotor activity; for ED50: Mus musculus, 30-60 min period
Protocol: A dose response study of induced locomotor stimulation was conducted according to the following procedure. The study was conducted using a 16 or 32 Digiscan locomotor activity testing chambers (40.5×40.5×30.5 cm) housed in sets of two, within sound-attenuating chambers. A panel of infrared beams (16 beams) and corresponding photodetectors were located in the horizontal direction along the sides of each activity chamber. A 15-W incandescent light above each chamber provided dim illumination. Fans provided an 80-dB ambient noise level within the chamber. Separate groups of 8 non-habituated male Swiss-Webster mice (Hsd:ND4, aged 2-3 months) were injected via the intraperitoneal (IP) route with either vehicle (deionized water for Compounds 1-4, carboxymethylcellulose for Compound 6 or methyl cellulose for Compound 7)) or test compound (1, 2.5, 5, 10, 25 or 50 mg/kg for Compound 3; 1, 3, 10 and 30 mg/kg for Compounds 1, 2 and 4; 3, 10, 30 or 100 mg/kg for Compound 6; and 1, 3, 10, 30 and 100 mg/kg for Compound 7). Compounds 1-4 were injected immediately prior to locomotor activity testing. […] In all studies, horizontal activity (interruption of photocell beams) was measured for 1 hour within 10 minute periods. Testing was conducted with one mouse per activity chamber.
FIGS. 1, 3, 5 and 7 show average horizontal activity counts/10 minutes as a function of time, immediately following injection of Compound 1, Compound 2, Compound 3 and Compound 4, respectively. FIGS. 13 and 15 show average horizontal activity counts/10 minutes as a function of time, beginning twenty minutes following injection of Compound 6 and Compound 7, respectively. The period 30-60 minutes was selected for analysis of dose-response data. Using TableCurve 2D v2.03 software (Jandel Scientific), the mean average horizontal activity counts/10 minutes for this period were fit to a 3-parameter logistic peak function of log10 dose (with the constant set to 1989, the mean of the vehicle-treated group), and the maximum effect estimated from the resulting curve. […] FIGS. 2, 4, 6, 8, 14 and 16 show average horizontal activity counts/10 minutes over 30 minutes versus the amount administered of Compound 1, Compound 2, Compound 3, Compound 4, Compound 6 and Compound 7, respectively.

[3] = system: cocaine-induced stimulation; assay: Interaction study: block of cocaine-induced locomotor stimulation (20 mg/kg cocaine IP) (Example 3); type: in vivo, Swiss-Webster mice; conditions: for ED50: Mus musculus, ip, read-out: AD50 (dose attenuating cocaine-induced stimulation by 50%)
Protocol: This interaction study was conducted using 16 Digiscan locomotor activity testing chambers as described in Example 2. […] When testing the effects of Compounds 6 and 7, mice were placed in the Digiscan apparatus twenty minutes after the injection of the test compound or vehicle.
FIGS. 9, 17 and 19 show average horizontal activity counts for the different treatment groups as a function of time. […] FIGS. 10, 18 and 20 show average horizontal activity counts/10 min for different treatment groups as a function of dose.
A one-way analysis of variance conducted on log10 horizontal activity counts for the selected time period indicated a significant overall effect for the treatment groups; F(4,35)=[…] for Compound 2; F(5,42)=[…] for Compound 6; and F((5,42)=8.96 p<0.5). […] All ps<0.05 are denoted in FIGS. 10, 18 and 20 with an asterisk.

squirrel monkeys = assay: Locomotor response in primates (Example 5); type: in vivo
[4] = read-out: ED50 (dose producing 1/2 maximal stimulant activity)

Q: How did the ED50 (male Swiss-Webster mice [1]; 0.5 h) turn out when `COC(=O)[C@H]1[C@@H](OC(=O)c2ccccc2)C[C@@H]2CC[C@H]1N2C` [Cocaine, reference compound] was run?
A: 8.8 mg/kg

Q: What about the “Duration of stimulant effects” value (male Swiss-Webster mice [1]; cocaine 10, 20 and 40 mg/kg IP) of the same compound?
A: up to 3 hours

Q: And the “Onset of stimulant effects following injection” value (male Swiss-Webster mice [1]; cocaine 10, 20 and 40 mg/kg IP)?
A: ≤ 10 min

Q: And the “Maximum effect (horizontal activity)” value (male Swiss-Webster mice [1]; cocaine, 0-30 min, at 18.3 mg/kg)?
A: 6059 counts/10 min

Q: And the “Dose of maximum effect” value (male Swiss-Webster mice [1]; cocaine, 0-30 min)?
A: 18.3 mg/kg

Q: What about the “Stimulation of locomotor activity” value (male Swiss-Webster mice [1]; cocaine, doses from 10 to 40 mg/kg IP) of the same compound?
A: time-dependent stimulation of locomotor activity

Q: What about the “Period of maximal stimulant effects” value (male Swiss-Webster mice [1]; first minutes following 20 mg/kg cocaine) of the same compound?
A: ≤ 30 min

Q: And the “Control rate of responding maintained by cocaine (drug component)” value (from here on “Control rate of responding maintained”) (male rhesus monkeys; 0.0032 mg/kg/inj cocaine, monkey 89B013)?
A: 0.51 responses/sec

Q: What about the “Control rate of responding maintained” value (male rhesus monkeys; 0.0032 mg/kg/inj cocaine, monkey 89B056) of the same compound?
A: 0.79 responses/sec

Q: And the “Control rate of responding maintained” value (male rhesus monkeys; 0.0032 mg/kg/inj cocaine, monkey J3A)?
A: 0.57 responses/sec

Q: And the “Control rate of responding maintained” value (male rhesus monkeys; 0.01 mg/kg/inj cocaine, monkey WH8)?
A: 0.45 responses/sec

Q: What about the “Unit dose of cocaine maintaining maximal rates of self-administration” value (male rhesus monkeys; control conditions, monkey WH8) of the same compound?
A: 0.01 mg/kg/inj

Q: What about the “Unit dose of cocaine maintaining maximal rates of self-administration” value (male rhesus monkeys; control conditions, monkeys 89B056 and J3A) of the same compound?
A: 0.0032 mg/kg/inj

Q: What about the “Shape of dose-effect curve for cocaine self-administration” value (male rhesus monkeys; control conditions, no pretreatment) of the same compound?
A: inverted-U shape

Q: `CCCN(C)C1CC(c2ccc(Cl)c(Cl)c2)c2ccccc21` (centres unmarked) [Compound 2] was tested. Which “Maximal Effect Relative to Cocaine” value (male Swiss-Webster mice [2]) did it give?
A: 0.51

Q: And the ED50 (male Swiss-Webster mice [2]; [4])?
A: 5.65 mg/kg

Q: And the “Period of maximal stimulant effects” value (male Swiss-Webster mice [1]; Compound 2)?
A: 280 to 310 min

Q: What about the “Duration of stimulant effects” value (male Swiss-Webster mice [1]; Compound 2, 3 to 30 mg/kg) of the same compound?
A: UP TO SEVEN

Q: And the “Maximal effect/cocaine maximal effect ratio (ME/CME)” value (male Swiss-Webster mice [1]; Compound 2, 280-310 min)?
A: 1.4

Q: What about the “Maximum effect (horizontal activity)” value (male Swiss-Webster mice [1]; Compound 2, 280-310 min, at 12.9 mg/kg) of the same compound?
A: 4581 counts/10 min

Q: What about the “Dose of maximum effect” value (male Swiss-Webster mice [1]; Compound 2, 280-310 min) of the same compound?
A: 12.9 mg/kg

Q: What about the “Stimulation of locomotor activity” value (male Swiss-Webster mice [1]; Compound 2, doses from 3 to 30 mg/kg) of the same compound?
A: time-dependent stimulation of locomotor activity

Q: And the ED50 (male Swiss-Webster mice [1]; 310 min, Compound 2, 280-310 min, 1 to 10 mg/kg ascending portion)?
A: 3.3 mg/kg

Q: And the “Effect on cocaine-induced locomotor stimulation” value ([3]; 20 mg/kg cocaine IP)?
A: antagonized the stimulant effect of cocaine; also recorded: block cocaine induced locomotor activity

Q: What about the “Dose with significant difference against the cocaine group (planned comparisons)” value ([3]; 20 mg/kg cocaine IP, 0-30 min, p<0.05) of the same compound?
A: 30 mg/kg

Q: What about the ED50 [3] of the same compound?
A: 13.8 mg/kg

Q: Which “Maximal Effect Relative to Cocaine” value (male Swiss-Webster mice [2]) does the source give for `CCN(C)C1CC(c2ccc(Cl)c(Cl)c2)c2ccccc21` (centres unmarked) [Compound 3] here?
A: 0.93

Q: What about the ED50 (male Swiss-Webster mice [2]; [4]) of the same compound?
A: 10.8 mg/kg

Q: `CCNC1CC(c2ccc(Cl)c(Cl)c2)c2ccccc21` (centres unmarked) [Compound 4] was tested. Which “Maximal Effect Relative to Cocaine” value (male Swiss-Webster mice [2]) did it give?
A: 1.07

Q: And the ED50 (male Swiss-Webster mice [2]; [4])?
A: 3.9 mg/kg

Q: Which results are given for `CNC1CC(c2ccc(Cl)c(Cl)c2)c2ccccc21` (centres unmarked) [Compound 5]?
A: Duration of stimulated locomotor activity / increased response rate (squirrel monkeys; 0.3 mg/kg Compound 5): two to four; Number of Responses/Second (squirrel monkeys; 0.3 mg/kg Compound 5, Day 1, Monkey 1 (control 0.74)): 1.29 responses/second; Number of Responses/Second (squirrel monkeys; 0.3 mg/kg Compound 5, Day 1, Monkey 2 (control 0.72)): 0.87 responses/second; Number of Responses/Second (squirrel monkeys; 0.3 mg/kg Compound 5, Day 1, Monkey 3 (control 0.92)): 1.11 responses/second; Number of Responses/Second (squirrel monkeys; 0.3 mg/kg Compound 5, Day 2, Monkey 1 (control 0.74)): 0.99 responses/second; Number of Responses/Second (squirrel monkeys; 0.3 mg/kg Compound 5, Day 2, Monkey 2 (control 0.72)): 1.18 responses/second; Number of Responses/Second (squirrel monkeys; 0.3 mg/kg Compound 5, Day 2, Monkey 3 (control 0.92)): 1.28 responses/second; Number of Responses/Second (squirrel monkeys; 0.3 mg/kg Compound 5, Day 3, Monkey 1 (control 0.74)): 0.75 responses/second; Number of Responses/Second (squirrel monkeys; 0.3 mg/kg Compound 5, Day 3, Monkey 2 (control 0.72)): 0.88 responses/second; Number of Responses/Second (squirrel monkeys; 0.3 mg/kg Compound 5, Day 3, Monkey 3 (control 0.92)): 1.13 responses/second; Number of Responses/Second (squirrel monkeys; 0.3 mg/kg Compound 5, Day 4, Monkey 1 (control 0.74)): 0.79 responses/second; Number of Responses/Second (squirrel monkeys; 0.3 mg/kg Compound 5, Day 4, Monkey 2 (control 0.72)): 0.74 responses/second; Number of Responses/Second (squirrel monkeys; 0.3 mg/kg Compound 5, Day 4, Monkey 3 (control 0.92)): 1.01 responses/second

Q: What does the source list for `CC(C)(C)NC1CC(c2ccc(Cl)c(Cl)c2)c2ccccc21` (centres unmarked) [Compound 6]?
A: ED50 (male Swiss-Webster mice [2]; [4]): 506 mg/kg; Effect on cocaine-induced locomotor stimulation ([3]; 20 mg/kg cocaine IP): antagonized the stimulant effect of cocaine; ED50 [3]: 23.6 mg/kg

Q: Which “Effect on locomotor activity” value (male Swiss-Webster mice [2]) does the source give for `CN(C1CC(c2ccc(Cl)c(Cl)c2)c2ccccc21)C(C)(C)C` (centres unmarked) [Compound 7] here?
A: inhibited locomotor activity

Q: And the ED50 (male Swiss-Webster mice [2]; read-out: ID50 (dose producing 1/2 maximal inhibitory activity))?
A: 184 mg/kg

Q: And the “Effect on cocaine-induced locomotor stimulation” value ([3]; 20 mg/kg cocaine IP)?
A: antagonized the stimulant effect of cocaine; also recorded: block cocaine induced locomotor activity

Q: And the ED50 [3]?
A: 42.5 mg/kg
